In patent US11738027B2, “MPO inhibitors for use in medicine” (AstraZeneca AB, priority 2017, dated 2023):

Key:
[1] = test system: human sperm with activated human neutrophils; test: Kremer penetration assay; format: cell-based; conditions: 3 μM
Protocol: (§1) The neutrophils were then added to the sperm in sperm-safe 5 mL Polystyrene round bottom tubes (Falcon) at a ratio of about 1:3.
The Kremer penetration test assesses a sperm cell's ability to penetrate and swim through viscous media. This test is also known as the sperm-cervical mucus penetration test. A cervical mucus substitute was made up using 1% methyl cellulose dissolved in capacitating media. The solution was gassed in a 37° C. 5% CO2 incubator for 20 min. Then flat capillary tubes (Rectangle Boro Tubing, CM Scientific) were placed in the methyl cellulose solution for a further 20 min to allow the media to flow up the capillary tubes. After the 2 h incubation, 100 μL from each condition was aliquoted into a fresh sperm safe tube. One end of each tube was then blocked using plasticine and then one tube was placed open end first into each test condition. Each sperm safe tube containing a capillary tube was incubated 1 hour at 37° C. with 5% CO2. After 1 h, the capillary tubes were removed and the number of cells at 1 cm mark were counted manually. The results were expressed as a ratio to control (sperm only).

[2] = Phase 1 studies in healthy volunteers, adverse events; format: in vivo, human; conditions: oral, single doses up to 1200 mg (1400 mg ER), multiple up to 325 mg TID (600 mg BID 10 days ER), 181 subjects
human MPO = molecular target: T1, human MPO (Homo sapiens, UniProt P05164); test: MPO inhibition; format: biochemical; conditions: read-out: IC50, irreversible inhibitor of human MPO
T1 sequence (P05164 49-745): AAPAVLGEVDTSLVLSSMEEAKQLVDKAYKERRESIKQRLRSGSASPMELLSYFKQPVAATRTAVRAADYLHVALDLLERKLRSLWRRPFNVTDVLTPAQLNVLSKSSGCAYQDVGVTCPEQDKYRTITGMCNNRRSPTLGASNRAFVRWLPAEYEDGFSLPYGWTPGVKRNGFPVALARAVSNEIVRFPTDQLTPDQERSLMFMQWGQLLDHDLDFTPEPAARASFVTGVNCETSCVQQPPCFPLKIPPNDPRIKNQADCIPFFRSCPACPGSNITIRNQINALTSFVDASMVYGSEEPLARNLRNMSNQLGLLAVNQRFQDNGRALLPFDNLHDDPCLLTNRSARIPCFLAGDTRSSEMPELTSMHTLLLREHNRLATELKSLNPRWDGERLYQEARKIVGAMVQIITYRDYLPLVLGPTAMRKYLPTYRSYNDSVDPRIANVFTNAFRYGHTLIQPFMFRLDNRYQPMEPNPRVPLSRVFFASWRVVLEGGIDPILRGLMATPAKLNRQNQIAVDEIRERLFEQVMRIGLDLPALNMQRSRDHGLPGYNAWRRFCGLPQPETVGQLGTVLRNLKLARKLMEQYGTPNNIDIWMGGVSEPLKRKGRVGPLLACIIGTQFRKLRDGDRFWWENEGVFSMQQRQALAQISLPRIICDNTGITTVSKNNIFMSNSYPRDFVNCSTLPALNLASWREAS

[3] = test system: human sperm with activated human neutrophils; test: Sperm motility assessment (Hamilton-Thorn CASA) with activated neutrophils; format: cell-based; conditions: 3 μM
Protocol: as §1
Sperm motility was assessed using the Hamilton-Thorn CASA system. For each condition, a total of 200 cells were counted in at least four different fields of view. Where a sample had very low motility at least 100 cells were counted. The motility parameters were assessed at the start of the co-incubation with neutrophils (time 0), after 2 h and after 24 h. Motility was expressed as a percentage different between time 0 and after 2 h and percentage difference after time 0 and after 24 h for each time point for each sample.

[4] = test system: in situ zymosan activated peritoneum neutrophils; test: In vivo glutathione sulphonamide formation; parameters: species or system rat; conditions: rats, plasma concentration of ~5 μM
[5] = test system: isolated human neutrophils; test: PMA stimulated HOCl in isolated neutrophils; format: cell-based; conditions: Neutrophil
human sperm = conditions: 4 mM, 2-hour incubation, N=29, P<0.01
Protocol: A 10 mM stock solution of the drug was made up in 100% DMSO. This was then serially diluted to a working concentration of 3 μM using sEBSS as the diluent and stored at 4° C. The drug or vehicle was then added to the neutrophils and placed in a 37° C. water bath for 10 min. The neutrophils were then added to the sperm in sperm-safe 5 mL Polystyrene round bottom tubes (Falcon) at a ratio of about 1:3. Zymosan at a final concentration of 1 μg/ml was added to activate the neutrophils and incubated for 2 hours at 37° C.
Following the 2 h incubation with activated neutrophils, aliquots of 50 μL were taken from all 4 conditions and transferred into 1.5 mL Eppendorf tubes. H2O2 was used as a positive control. An extra aliquot for a secondary only control was taken from the sperm only tube. The cells (except the secondary only tube) were incubated for 0.5 h at 37° C. with an anti-malondialdehyde (MDA) antibody (ab27642, abcam, Cambridge) at a working ratio of 1:50 (Moazamian R, Polhemus A, Connaughton H, Fraser B, Whiting S, Gharagozloo P, Aitken R J. Mol Hum Reprod 2015; 21(6):502-15). […] The level of MDA staining in each condition was then assessed in 10,000 cells using a pre-validated flow cytometry program in a BD LSRFortessa cell analyser. Due to a technical error one sample was unable to be assessed using flow cytometry.

| Compound | patients with clinically-relevant beneficial effect ([1]; 29 patients evaluated) | sperm found at 1 cm versus vehicle ([1]; 2 h incubation, n=29, p=0.02) | further subjects showing a smaller improvement ([1]; of 29 patients) | subjects with clinically-relevant improvement in sperm penetration ([1]; of the 29 subjects) | drug-related adverse events [2] | IC50 (human MPO) [nM] | absolute change in overall sperm motility from baseline to 2 h and 24 h ([3]; first 11 subjects, vs vehicle, two-tailed t-test P=0.09) | percentage differences between CASA measurements at time zero and after 24-hour incubation (motility, progressive, rapid, VAP, VSL, VCL, ALH) ([3]; n=29, vs vehicle, not statistically significant (P>0.1)) | in vivo formation of glutathione sulphonamide [4] | inhibition at 1 µM [5] [%] | MDA staining versus the other conditions (human sperm) |
| --- | --- | --- | --- | --- | --- | --- | --- | --- | --- | --- | --- |
| O=c1[nH]c(=S)n(C[C@H]2CCCO2)c2nc[nH]c12 [AZD5904, 3-[[(2R)-tetrahydrofuran-2-yl]methyl]-2-thioxo-7H-purin-6-one] | over 50% | significantly more sperm | 8 | 15 | No overtly drug-related adverse event | 140 | statistical trend | positive trend | decreased | > 90 | – |
| OO [H2O2, hydrogen peroxide] | – | – | – | – | – | – | – | – | – | – | stained significantly more |
